In ChEMBL document CHEMBL3992495, “Aliphatic and alicyclic camphor imines as effective inhibitors of influenza virus H1N1” (Eur J Med Chem, 2017):
Where a name gives a salt, the structure may show the parent alone.

Tested on: not listed separately
Assay: Cytotoxicity against MDCK cells after 48 hrs by MTT assay
Assay type: cell-based, Canis lupus familiaris
Settings: dog, read-out: CTD50

Compound | CC50 at 48 h
CCCCCCCCCCCC/N=C1\C[C@H]2CC[C@]1(C)C2(C)C | 62.1 µM
CCCCCCCC/N=C1\C[C@H]2CC[C@]1(C)C2(C)C | 97.3 µM
NC12CC3CC(CC(C3)C1)C2 [AMANTADINE] | 280 to 284 µM
CCCCCCCCCC/N=C1\C[C@H]2CC[C@]1(C)C2(C)C | 50.9 µM
CCC/N=C1\C[C@H]2CC[C@]1(C)C2(C)C | > 2590 µM
CCCCC/N=C1\C[C@H]2CC[C@]1(C)C2(C)C | 801 µM
CCCCCCCCCCCCCCCCCC/N=C1\C[C@H]2CC[C@]1(C)C2(C)C | > 744 µM
CC(N)[C@@H]1C[C@H]2CC[C@@H]1C2 (some centres undefined) | 1260 to 1270 µM
CC1(C)[C@@H]2CC[C@@]1(C)/C(=N/C1CC1)C2 | 1660 µM
CCCC/N=C1\C[C@H]2CC[C@]1(C)C2(C)C | 2420 µM
CC1(C)[C@@H]2CC[C@@]1(C)/C(=N/C1CCCCC1)C2 | > 1290 µM
CCCCCC/N=C1\C[C@H]2CC[C@]1(C)C2(C)C | 468 µM
CCCCCCC/N=C1\C[C@H]2CC[C@]1(C)C2(C)C | 234 µM
CC1(C)[C@@H]2CC[C@@]1(C)/C(=N/CCO)C2 | 2500 µM

Tested on: Influenza A virus (A/California/07/09(H1N1))
Assay: Selectivity index, ratio of CTD50 for MDCK cells to ED50 for Influenza A virus (A/California/07/09(H1N1))
Assay type: toxicity
Settings: dog, read-out: Selectivity Index

Compound | selectivity ratio
CCCCCCCCCCCC/N=C1\C[C@H]2CC[C@]1(C)C2(C)C | 4
CCCCCCCC/N=C1\C[C@H]2CC[C@]1(C)C2(C)C | 2
NC12CC3CC(CC(C3)C1)C2 [AMANTADINE] | 4
CCCCCCCCCC/N=C1\C[C@H]2CC[C@]1(C)C2(C)C | 3
CCC/N=C1\C[C@H]2CC[C@]1(C)C2(C)C | > 131
CCCCC/N=C1\C[C@H]2CC[C@]1(C)C2(C)C | 104
CCCCCCCCCCCCCCCCCC/N=C1\C[C@H]2CC[C@]1(C)C2(C)C | > 1
CC1(C)[C@@H]2CC[C@@]1(C)/C(=N/C1CC1)C2 | 3
CCCC/N=C1\C[C@H]2CC[C@]1(C)C2(C)C | 312
CC12CCC(CC1=O)C2(C)C (centres undefined) [CAMPHOR] | 2
CC(N)C12CC3CC(CC(C3)C1)C2 (centres undefined) [RIMANTADINE HYDROCHLORIDE] | 5
CC1(C)[C@@H]2CC[C@@]1(C)/C(=N/C1CCCCC1)C2 | > 23
CCCCCC/N=C1\C[C@H]2CC[C@]1(C)C2(C)C | 18
CCCCCCC/N=C1\C[C@H]2CC[C@]1(C)C2(C)C | 171
CC1(C)[C@@H]2CC[C@@]1(C)/C(=N/CCO)C2 | 500

Tested on: not listed separately
Assay: Antiviral activity against Influenza A virus (A/California/07/09(H1N1)) infected in MDCK cells assessed as inhibition of viral replication after 48 hrs by hemagglutination test
Assay type: functional, Influenza A virus (A/California/07/2009(H1N1))
Settings: Influenza A virus, MDCK, 48 h; read-out: ED50 (the source's name)

Compound | EC50
CCCCCCCCCCCC/N=C1\C[C@H]2CC[C@]1(C)C2(C)C | 15.7 µM
CCCCCCCC/N=C1\C[C@H]2CC[C@]1(C)C2(C)C | 64.6 µM
NC12CC3CC(CC(C3)C1)C2 [AMANTADINE] | 64.2 to 70 µM
CCCCCCCCCC/N=C1\C[C@H]2CC[C@]1(C)C2(C)C | 17.2 µM
CCC/N=C1\C[C@H]2CC[C@]1(C)C2(C)C | 19.7 µM
CCCCC/N=C1\C[C@H]2CC[C@]1(C)C2(C)C | 7.7 µM
CCCCCCCCCCCCCCCCCC/N=C1\C[C@H]2CC[C@]1(C)C2(C)C | 744 µM
CC(N)[C@@H]1C[C@H]2CC[C@@H]1C2 (some centres undefined) | 206 to 209 µM
CC1(C)[C@@H]2CC[C@@]1(C)/C(=N/C1CC1)C2 | 592 µM
CCCC/N=C1\C[C@H]2CC[C@]1(C)C2(C)C | 7.7 µM
CC(N)C12CC3CC(CC(C3)C1)C2 (centres undefined) [RIMANTADINE HYDROCHLORIDE] | 67 µM
CC1(C)[C@@H]2CC[C@@]1(C)/C(=N/C1CCCCC1)C2 | 55.4 µM
CCCCCC/N=C1\C[C@H]2CC[C@]1(C)C2(C)C | 26 µM
CCCCCCC/N=C1\C[C@H]2CC[C@]1(C)C2(C)C | 1.4 µM
CC1(C)[C@@H]2CC[C@@]1(C)/C(=N/CCO)C2 | 5 µM

Same assay, conditions: read-out: ED50 (the source's name)

Compound | EC50
CC12CCC(CC1=O)C2(C)C (centres undefined) [CAMPHOR] | 1640 µM

Tested on: Influenza A virus
Assay: Antiviral activity against Influenza A virus (A/Puerto Rico/8/34(H1N1)) infected in MDCK cells assessed as inhibition of viral replication after 48 hrs by hemagglutination test
Assay type: functional
Settings: A/Puerto Rico/8/1934(H1N1), read-out: ED50 (the source's name)

Compound | EC50
CCCCCCCCCCCC/N=C1\C[C@H]2CC[C@]1(C)C2(C)C | > 37.6 µM
CCCCCCCC/N=C1\C[C@H]2CC[C@]1(C)C2(C)C | 9.9 µM
NC12CC3CC(CC(C3)C1)C2 [AMANTADINE] | 72.8 µM
CCCCCCCCCC/N=C1\C[C@H]2CC[C@]1(C)C2(C)C | 10.3 µM
CCC/N=C1\C[C@H]2CC[C@]1(C)C2(C)C | 4.1 µM
CCCCC/N=C1\C[C@H]2CC[C@]1(C)C2(C)C | 12.2 µM
CCCCCCCCCCCCCCCCCC/N=C1\C[C@H]2CC[C@]1(C)C2(C)C | > 744 µM
CC(N)[C@@H]1C[C@H]2CC[C@@H]1C2 (some centres undefined) | 230 µM
CC1(C)[C@@H]2CC[C@@]1(C)/C(=N/C1CC1)C2 | 738 µM
CCCC/N=C1\C[C@H]2CC[C@]1(C)C2(C)C | 5.8 µM
CC12CCC(CC1=O)C2(C)C (centres undefined) [CAMPHOR] | 1450 µM
CC(N)C12CC3CC(CC(C3)C1)C2 (centres undefined) [RIMANTADINE HYDROCHLORIDE] | 83.8 µM
CC1(C)[C@@H]2CC[C@@]1(C)/C(=N/C1CCCCC1)C2 | 15.5 µM
CCCCCC/N=C1\C[C@H]2CC[C@]1(C)C2(C)C | 29.8 µM
CCCCCCC/N=C1\C[C@H]2CC[C@]1(C)C2(C)C | 4.8 µM

Tested on: Influenza A virus (A/Puerto Rico/8/34(H1N1))
Assay: Selectivity index, ratio of CTD50 for MDCK cells to ED50 for Influenza A virus (A/Puerto Rico/8/34(H1N1))
Assay type: toxicity
Settings: dog, read-out: Selectivity Index

Compound | selectivity ratio
CCCCCCCCCCCC/N=C1\C[C@H]2CC[C@]1(C)C2(C)C | < 2
CCCCCCCC/N=C1\C[C@H]2CC[C@]1(C)C2(C)C | 10
NC12CC3CC(CC(C3)C1)C2 [AMANTADINE] | 4
CCCCCCCCCC/N=C1\C[C@H]2CC[C@]1(C)C2(C)C | 5
CCC/N=C1\C[C@H]2CC[C@]1(C)C2(C)C | > 632
CCCCC/N=C1\C[C@H]2CC[C@]1(C)C2(C)C | 66
CCCCCCCCCCCCCCCCCC/N=C1\C[C@H]2CC[C@]1(C)C2(C)C | < 1
CC1(C)[C@@H]2CC[C@@]1(C)/C(=N/C1CC1)C2 | 2
CCCC/N=C1\C[C@H]2CC[C@]1(C)C2(C)C | 417
CC12CCC(CC1=O)C2(C)C (centres undefined) [CAMPHOR] | 2
CC(N)C12CC3CC(CC(C3)C1)C2 (centres undefined) [RIMANTADINE HYDROCHLORIDE] | 4
CC1(C)[C@@H]2CC[C@@]1(C)/C(=N/C1CCCCC1)C2 | > 83
CCCCCC/N=C1\C[C@H]2CC[C@]1(C)C2(C)C | 16
CCCCCCC/N=C1\C[C@H]2CC[C@]1(C)C2(C)C | 49
